Series [1] is described as follows: saturation concentration of acetylsalicylic acid in the solvent mixture. The format is physicochemical. The note with it: solvent mixture: propylene glycol about 10% by volume, glycerine about 2 percent by volume, balance isopropyl alcohol/water solution with isopropyl alcohol about 70% by volume.
The nature of series [2]: solubility of acetylsalicylic acid in water. Format: physicochemical. An excerpt:
In preparing the composition, it can be helpful to gently warm while stirring the solvent mixture to assist the acetylsalicylic acid in completely dissolving in the solvent mixture. It has been observed that the typical consumer tends to prefer a product that is homogeneous in appearance and without any visible precipitate. […] Thus, aloe vera, for example, while it is soothing to the skin, tends to quickly hydrolyze acetylsalicylic acid. The hydrolysis of the acetylsalicylic acid would substantially and undesirably shorten the shelf life of the product.

The structures appear in SMILES notation.

With `CC(=O)Oc1ccccc1C(=O)O` [acetylsalicylic acid], the “saturation concentration of the acetylsalicylic acid in this solvent mixture” value in series [1] is “about 18 % by weight per unit volume”. Besides, the “solubility in water or water based substances” value in series [2] was “virtually insoluble”.

Values taken from patent US20040018158A1, “Topical compositions including sunscreen compositions” (Tend Skin International, Inc., priority 1998, published 2004).
